The values that follow are results of earlier work, collected in US8937168B2, “Method of producing purified rebaudioside A compositions using solvent/antisolvent crystallization” (Cargill, Incorporated, priority 2007, dated 2015).

The conditions of this series: relative to sucrose; background statement.

The structures appear in SMILES notation.

On to `C=C1C[C@@]23CC[C@H]4[C@@](C)(CCC[C@@]4(C)C(=O)O[C@@H]4O[C@H](CO)[C@@H](O)[C@H](O)[C@H]4O)[C@@H]2CC[C@]1(O[C@@H]1O[C@H](CO)[C@@H](O)[C@H](O[C@@H]2O[C@H](CO)[C@@H](O)[C@H](O)[C@H]2O)[C@H]1O[C@@H]1O[C@H](CO)[C@@H](O)[C@H](O)[C@H]1O)C3` [Rebaudioside A, rebaudioside A], for which the “times the sweetness of sucrose” value is 250-450 times.
